PubChem BioAssay (NCI)
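Where inhibition never reached the appropriate level, the endpoint shown equals the highest concentration tested. Otherwise, values were interpolated linearly from a five-concentration, 48-hour dose response in 96-well plates. At the TGI there is no net growth.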

Experiments:
Assay in all cases: NCI anticancer screen, dose series, 48 h
HCT-116 colon = test system: HCT-116 colon
HT29 colon = test system: HT29 colon
HS 578T breast = test system: HS 578T breast
UACC-257 melanoma = test system: UACC-257 melanoma
UO-31 renal = test system: UO-31 renal
RXF 393 renal = test system: RXF 393 renal
NCI-H522 lung = test system: NCI-H522 lung
A549 NSCLC = test system: A549 NSCLC
UACC-62 melanoma = test system: UACC-62 melanoma
SN12C renal = test system: SN12C renal
CCRF-CEM leukemia = test system: CCRF-CEM leukemia
OVCAR-8 ovarian = test system: OVCAR-8 ovarian
SNB-19 CNS = test system: SNB-19 CNS
SF-295 CNS = test system: SF-295 CNS
SW-620 colon = test system: SW-620 colon
HOP-92 NSCLC = test system: HOP-92 NSCLC

SMILES | TGI (HCT-116 colon) [µM] | TGI (HT29 colon) [µM] | TGI (HS 578T breast) [µM] | TGI (UACC-257 melanoma) [µM] | TGI (UO-31 renal) [µM] | TGI (RXF 393 renal) [µM] | TGI (NCI-H522 lung) [µM] | TGI (A549 NSCLC) [µM] | TGI (UACC-62 melanoma) [µM] | TGI (SN12C renal) [µM] | TGI (CCRF-CEM leukemia) [µM] | TGI (OVCAR-8 ovarian) [µM] | TGI (SNB-19 CNS) [µM] | TGI (SF-295 CNS) [µM] | TGI (SW-620 colon) [µM] | TGI (HOP-92 NSCLC) [µM]
CC1NC(=O)c2c(-c3ccccc3)nn(-c3ccccc3)c2NC1=O (stereo unspecified) | > 100 | > 100 | > 100 | > 100 | > 100 | > 100 | > 100 | > 100 | > 100 | > 100 | > 100 | > 100 | > 100 | > 100 | > 100 | > 100
Brc1ccc(N=C/C=C(\Nc2ccc(Br)cc2)C23CC4CC(CC(C4)C2)C3)cc1 | 23.8 | > 61.6 | > 67.4 | 36.8 | 34.6 | 29 | 30.5 | > 100 | 15 | > 64.2 | 4.5 | > 81.3 | > 100 | > 92 | 92.1 | 31.5
N[C@@H]1c2c(Br)sc(Br)c2C(=O)[C@H]1Br | 39.9 | 53.3 | > 100 | > 75.3 | 55.6 | 53.6 | 29 | > 100 | 59.3 | 58.9 | > 22.6 | 48.4 | > 74.6 | > 100 | 44.4 | 33
C/C(CC(O)(C(F)(F)Cl)C(F)(F)Cl)=N\Nc1ccccc1 | > 100 | > 100 | 66.2 | > 100 | > 100 | 47.6 | > 100 | > 100 | > 100 | – | > 100 | > 100 | > 100 | > 100 | > 100 | 69.6
COc1cc2c(OC)c3cc(C)oc(=O)c3c(O)c2c(O)c1-c1c(OC)cc2c(OC)c3cc(C)oc(=O)c3c(O)c2c1O | 28 | 55.3 | > 100 | 44.1 | 35.9 | 35.9 | 40 | 38.9 | 41 | 45.2 | 39.3 | 30 | 65.1 | 39.7 | > 100 | 55.9
C/C(=N/NC(=S)Nc1ccccc1C)c1ccccn1 | 12.9 | 31.8 | 65.3 | 1.88 | 15.6 | 13.2 | 12.9 | 18.5 | 5.99 | 6.51 | 14.4 | 9.32 | 54.8 | 5.63 | 29.2 | 17
O=C(CC(O)(C(F)(F)Cl)C(F)(F)Cl)CC(O)(C(F)(F)Cl)C(F)(F)Cl | 3.68 | > 10 | 7.86 | 6.17 | > 10 | 6.08 | > 10 | > 10 | > 10 | > 10 | > 10 | > 10 | > 10 | 9.51 | > 10 | 3.04
Cc1cc(C)c2c(=O)cc(-c3ccccc3)[nH]c2c1 | 15.8 | 27.1 | 21.2 | > 100 | 27.8 | 5.11 | 7.29 | 29.1 | 28.7 | > 65.3 | > 100 | 46.9 | > 100 | 17.9 | > 100 | 59.5
COc1cc(C)cc(C(=O)OCc2ccccc2)c1C1=C(Cl)C(=O)C(Cl)=CC1=O | > 10 | > 10 | > 10 | > 10 | > 10 | > 10 | 3.69 | > 10 | > 10 | > 10 | 4.76 | > 10 | > 10 | > 10 | > 10 | 9.92
CC(Cc1ccc(O)cn1)(NC(=O)c1ccccc1)C(=O)O (stereo unspecified) | > 100 | > 100 | > 100 | > 100 | > 100 | > 100 | > 100 | > 100 | > 100 | – | > 100 | > 100 | > 100 | > 100 | > 100 | > 100
Cc1ccc([N+](=O)[O-])cc1S(=O)(=O)Nc1ccc(C(=O)/C=C/c2ccccc2)cc1 | 29.3 | 57.6 | > 100 | 34.6 | 40.7 | 25 | 53 | > 100 | 28.1 | 43.2 | 69.9 | 50.2 | 39.6 | 44.1 | 59.4 | 41.1
Brc1ccc2[nH]cc([C@@H]3CN[C@@H](c4c[nH]c5ccc(Br)cc45)CN3)c2c1 | 9.2 | 15.5 | 29.6 | 23.7 | 9.47 | 24.5 | 4.39 | 19.4 | 21.8 | 17.8 | 5.41 | 13.8 | 24.3 | 14.7 | 15.6 | 7.57
NC(=S)Nc1c(S(N)(=O)=O)cc(S(N)(=O)=O)c(Cl)c1Cl | > 100 | > 100 | > 100 | > 100 | > 100 | > 100 | > 100 | > 100 | > 100 | > 100 | > 100 | > 100 | > 100 | > 100 | > 100 | > 100
COc1ccccc1NC(=S)NNC(=O)c1cc(-c2ccccc2)nc2ccccc12 | 25.6 | 71.3 | 50.2 | 57.8 | 24.6 | 28.8 | 50 | 35 | 23.2 | 41.5 | 6.95 | 49 | > 100 | 18 | 84.9 | 36.5
Cc1ccc(NC(=O)C23CC4CC(CC(C4)C2)C3)c(C(=O)NNC(=O)c2ccc(Cl)cc2)c1 | > 100 | 72.9 | 33.8 | 9.53 | 37 | 39.8 | 30.4 | 46 | 53.2 | > 100 | 55.2 | > 100 | 8.91 | 66.5 | > 100 | 33.5
COc1ccc(/C=C2\N=C(N3CCOCC3)NC2=O)cc1 | > 100 | > 100 | > 100 | > 100 | > 100 | > 100 | > 100 | > 100 | > 100 | > 100 | > 100 | > 100 | > 100 | > 100 | > 100 | > 100
CC(C)(Cl)C(Br)CCC(=CCBr)CBr (mixture of isomers) | 3.66 | 4.65 | 19.3 | 14.2 | 3.42 | 15.7 | 3.19 | 29.9 | 11.5 | 8.39 | 3.49 | 9.25 | 13.1 | 11 | 5.53 | 5.1
Cc1cc(N(C)C)ccc1N=Nc1ccc2ncccc2c1 | > 100 | > 100 | > 100 | > 100 | > 100 | > 100 | 62.8 | > 100 | > 100 | > 100 | > 100 | > 100 | 94 | > 100 | > 100 | > 100
CNC(=O)Nn1c(SC)nc2ccccc21 | > 100 | > 100 | > 100 | > 100 | > 100 | > 100 | > 100 | > 100 | > 100 | > 100 | > 100 | > 100 | > 100 | > 100 | > 100 | > 100
COc1cc(/C=C2\N=C(c3ccccc3)N(c3ccc4c(c3)Sc3cc(N5C(=O)/C(=C/c6cc(OC)c(OC)c(OC)c6)N=C5c5ccccc5)ccc3N4)C2=O)cc(OC)c1OC | > 100 | > 100 | 88.1 | 31.3 | > 100 | 46.1 | 42.5 | > 100 | 31.4 | 51 | 57.3 | 37.9 | 39.8 | 47.9 | > 100 | 40.6
Cc1nn(C(=O)c2ccc(Cl)cc2)c2c1C(c1ccccc1)SC(N)=N2 (stereo unspecified) | > 10 | > 10 | > 10 | > 10 | – | > 10 | > 10 | > 10 | > 10 | > 10 | > 10 | > 10 | > 10 | > 10 | > 10 | > 10
CNc1cccc(-c2cc(=O)c3cc4c(cc3[nH]2)OCO4)c1 | > 100 | 2.71 | 8.96 | > 100 | > 50.8 | > 100 | 0.443 | > 91.8 | > 100 | > 42.8 | 11 | – | > 100 | > 22.9 | > 100 | > 100
CCOC(=O)c1sc2c(c1OC(=O)c1ccc(Cl)cc1Cl)c(=O)n(-c1ccccc1)c(=S)n2-c1ccccc1 | > 78.5 | > 77.5 | > 100 | > 100 | > 100 | > 100 | > 100 | > 100 | > 80.2 | 22.6 | > 100 | > 100 | > 100 | > 100 | > 100 | 26
COc1ccc(NS(=O)(=O)c2ccc3ncn(NS(=O)(=O)c4ccc(I)cc4)c(=O)c3c2)cc1 | > 100 | > 100 | > 100 | > 100 | > 100 | > 100 | > 100 | > 100 | > 100 | > 100 | > 100 | > 100 | > 100 | > 100 | > 100 | > 100
N#Cc1nc(N)c(C#N)[nH]1 | > 100 | > 100 | > 100 | > 100 | > 100 | > 100 | > 100 | > 100 | > 100 | > 100 | > 100 | > 100 | > 100 | > 100 | > 100 | > 100
